“Also recorded” adds a separate entry of the source.
Experiments:
[1] = biological target: DasR (Streptomyces coelicolor, UniProt Q9K492); test: EMSA binding interference experiment: ability of compounds to interfere with binding of DasR to the nagB and crr promoters; conditions: for effect on formation of the complex of DasR with the nagB promoter (EMSA): 10 nM fluorescent probe, 3 μM purified DasR, 500-fold excess of non-specific DNA, 50, 100, 150, and 200 mM compound
Protocol: FIG. 12. […] EMSAs were performed with 10 nM fluorescent probe, 3 μM purified DasR, and 500-fold excess of non-specific DNA.
EMSAs were performed with fluorescent probes (10 nM) with an ALF express sequencer (Filee et al., 2001). Purified DasR (3 μM) and 1000-fold excess of non-specific DNA were used in the reaction mixture. Predicted cis-acting elements were taken from the promoter regions of actII-ORF4 (SCO5085; 5′-[…]-3′ (SEQ ID NO:530)), and redZ (SCO5881; 5′-[…]-3′ (SEQ ID NO:531)). Known cis-acting elements upstream of crr (SCO1390; […]-3′ (SEQ ID NO:532)), and crp (SCO3571; 5′-[…]-3′ (SEQ ID NO:533)) were used as positive and negative controls, respectively. The 16 nt dre sites are underlined.
A pivotal question is what is the effector molecule that modulates DasR? As shown in here, many of the targets for DasR relate to the generation (chitinolytic system), transport (PTS^GlcNAc), and metabolism (glycolysis via fructose 6-P) of N-acetylglucosamine. We therefore looked for the inducer among the intermediate molecules that gravitate around aminosugar metabolism. A binding interference experiment was set up where the ability of compounds to interfere with binding of dasR to the nagB and crr promoters was tested. […] The finding that glucosamine-6-P serves as an effector of DasR is explained by its central position at the metabolic crossroads between (GlcNAc)n extracellular degradation, N-acetylglucosamine transport and intracellular metabolism, lipid and nitrogen metabolism, glycolysis, and peptidoglycan synthesis (FIG. 13).

[2] = test system: several streptomycetes (Bacillus subtilis as the indicator strain); test: Global antibiotic activity assay: streptomycetes on MM mannitol with or without GlcNAc, Bacillus subtilis overlay; format: cell-based, Streptomyces species; conditions: MM mannitol 0.5% with vs without GlcNAc 1%; for growth inhibition zones indicative of antibiotic production: B. subtilis indicator
Protocol: FIG. 23. Conservation of the GlcNAc-dependent antibiotic-inducing pathway amongst streptomycetes. Streptomycetes were grown on MM agar plates with 0.5% mannitol alone (left panel), or with added 1% GlcNAc (right panel), and an overlay was applied containing B. subtilis, allowing visualization of growth inhibition caused by antibiotic production. The tested streptomycetes were Streptomyces lividans 1326 (1326), Streptomyces hygroscopicus (hygro), Streptomyces collinus (colli), Streptomyces roseosporus (roseo), Streptomyces cinnamonensis (cinna), Streptomyces venezuelae (venez), Streptomyces clavuligerus (clavu), Streptomyces rimosus (rimos), Streptomyces griseus (grise), Streptomyces acrimycini (acrim), Streptomyces limosus (limos), and Streptomyces avermitilis (averm). See Materials and Methods section for exact nomenclature. The GlcNAc-triggering effect on antibiotic activity was most obvious for S. hygroscopicus, S. collinus, S. venezuelae, S. clavuligerus, S. rimosus, and S. griseus.
Samples (1 μl) of diluted spore suspensions were spotted on minimal medium plates containing 0.5% mannitol with or without 1% GlcNAc and incubated three days at 28° C. For the bioassay, we inoculated 10 ml of molten soft nutrient agar (SNA) with 500 μl of a Bacillus subtilis overnight culture (0D600˜1), and poured the mixture into square 12-cm-side Petri dishes. Plates were kept 2 h at 4° C. to solidify SNA and to allow diffusion of antibiotics produced, then incubated overnight at 30° C.
Is the GlcNAc-mediated control of antibiotic production a more widespread phenomenon in streptomycetes? To assess this, we evaluated the effect of GlcNAc on total antimicrobial activity (bactericidal and bacteristatic) of several streptomycetes, using Bacillus subtilis as the indicator strain. The tested strains were spotted on minimal medium containing mannitol (0.5%) with or without GlcNAc (1%). Excitingly, growth inhibition zones indicative of antibiotic production were much larger for Streptomyces clavuligerus (a producer of cephamycin), Streptomyces collinus (produces kirromycin), Streptomyces griseus (streptomycin producer), Streptomyces hygroscopicus (produces hygromycin), Streptomyces rimosus (produces oxytetracycline), and Streptomyces venezuelae (chloramphenicol, methymycin) (FIG. 23).

[3] = test system: S. coelicolor M145 and BAP29 mycelia; test: Sugar uptake assay with N-[14C]acetyl-D-glucosamine into mycelia; format: cell-based, Streptomyces coelicolor; conditions: parent M145, cultures grown in glycerol and inducer (GlcNAc); 20 μM N-[14C]acetyl-D-glucosamine
Text: FIG. 8. DasR represses genes the N-acetylglucosamine regulon (A) Effect of deletion of dasR on the uptake of GlcNAc. Left, uptake in glycerol-grown cultures; right, uptake in cultures grown in glycerol and inducer (GlcNAc); note that expression was constitutive in BAP29. (B) Western blot analysis of HPr (top) and IIA^Crr (bottom), showing that inducibility of these PTS proteins is controlled by DasR. (C) Transcriptional analysis of crr (for IIA^Crr), nagE2 (for IIC^GlcNAc), malX2 (for IIB^GlcNAc), nagB and chiF by semi-quantitative RT-PCR. Samples were collected before and 15, 30 and 60 min after the addition of GlcNAc to exponentially growing minimal medium glycerol cultures. 16S rRNA was used as control.
Uptake assays with 20 μM N-[^14C]acetyl-D-glucosamine (6.2 mCi mmol^−1) into mycelia were performed as described (Nothaft et al., 2003).
Since many of the predicted DasR targets were involved in the fate of carbon sources (Table 2), we analyzed the effects of the dasR mutation on sugar import. […] This correlated to constitutive protein levels of the universal PTS phosphotransferases HPr and IIA^Crr (FIG. 8B), and was supported by RT-PCR of the respective genes (malX2, nagE2, crr-ptsI and ptsH; FIG. 8C) that encode the PTS permease complex (IIB^GlcNAc, IIC^GlcNAc, IIA^Crr, EI, HPr).

DasR, sequence (Q9K492 whole entry): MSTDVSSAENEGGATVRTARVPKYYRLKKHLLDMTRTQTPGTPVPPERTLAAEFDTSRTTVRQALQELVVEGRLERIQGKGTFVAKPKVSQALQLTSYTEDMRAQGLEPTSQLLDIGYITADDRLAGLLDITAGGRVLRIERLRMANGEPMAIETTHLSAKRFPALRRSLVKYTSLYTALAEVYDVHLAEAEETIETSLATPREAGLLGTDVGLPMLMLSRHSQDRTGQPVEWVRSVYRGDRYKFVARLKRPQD

## CC(=O)N[C@H]1C(O)O[C@H](CO)[C@@H](O)[C@@H]1O (stereo partly shown) [N-acetylglucosamine]
[1]
  effect on formation of the complex of DasR with the nagB promoter (EMSA): it was the only of the compounds tested that prevented the formation of a complex
[1]; listed as GlcNAc
  effect on formation of the complex of DasR with the nagB promoter (EMSA): no effect
[1]; crr promoter, data not shown
  effect on formation of the complex of DasR with the crr promoter region (EMSA): it was the only of the compounds tested that prevented the formation of a complex
[2]; Streptomyces acrimycini
  antibiotic activity against B. subtilis: did not seem to affect
[2]; Streptomyces avermitilis
  antibiotic activity against B. subtilis: did not seem to affect
[2]; Streptomyces cinnamonensis
  antibiotic activity against B. subtilis: did not seem to affect
[2]; Streptomyces clavuligerus
  growth inhibition zones indicative of antibiotic production: most obvious; also recorded: much larger
[2]; Streptomyces collinus
  growth inhibition zones indicative of antibiotic production: most obvious; also recorded: much larger
[2]; Streptomyces griseus
  growth inhibition zones indicative of antibiotic production: most obvious; also recorded: much larger
[2]; Streptomyces hygroscopicus
  growth inhibition zones indicative of antibiotic production: most obvious; also recorded: much larger
[2]; Streptomyces limosus
  antibiotic activity against B. subtilis: did not seem to affect
[2]; Streptomyces lividans
  antibiotic activity against B. subtilis: did not seem to affect
[2]; Streptomyces rimosus
  growth inhibition zones indicative of antibiotic production: most obvious; also recorded: much larger
[2]; Streptomyces roseosporus
  antibiotic activity against B. subtilis: repressing effect
[2]; Streptomyces venezuelae
  growth inhibition zones indicative of antibiotic production: most obvious; also recorded: much larger
[3]
  PTS-mediated uptake of GlcNAc: induced

From patent US9834773B2, “Methods and means for metabolic engineering and improved product formation by micro-organisms” (Universiteit Leiden, priority 2006, dated 2017)
